The text below walks through data of patent US20250092058A1 (priority 2018, published 2025).

The subject of series [1] is CRC PDX27454 tumors. The note with it: mouse, in vivo. As for the experimental part:
Colorectal cancer (CRC) patient-derived xenograft (PDX) models were used to evaluate their in vivo antitumor activity. […] Treatments were administered weekly for four weeks on days 0, 7, 14 and 21 and tumor volumes and individual body weights were monitored.
Human xenograft tumors used. In this invention disclose, human SW620 (colorectal), HT29 (colorectal) and HT-3 (retinoblastoma) cancer cell line-established xenograft tumors were used. Human tumor cell line-derived xenograft tumors are initially established by subcutaneously injecting 2-5×10^6 cultured cancer cells in a volume of 100-150 p L medium into the flank area of severe combined immunodeficiency (SCID) mice. The derived tumors are then passed a couple of generations in mice by transplanting 30-50 mg non-necrotic tumor mass via a trocar for experiments or maintenance. […] PDX tumors were originally established on severe Combined Immunodeficiency (SCID) mice from pancreatic and colorectal cancer patient tumor tissues obtained from metastatic sites of the disease in the clinic.
Specifically, PDX tumors were originally established on severe Combined Immunodeficiency (SCID) mice from pancreatic and colorectal cancer patient tumor tissues obtained from metastatic sites of the disease in the clinic. […] The vehicle is the same think aqueous suspension without drug. Experimental SCID mice were subcutaneously implanted with 30-40 mg individual PDX tumors (isolated from maintenance mice) at the flank area for PDX27454 of SCID mice. Treatment with vehicle or a drug of 7Q-series (2) was initiated 7-14 days after the transplanted tumors reached 100-200 mm^3 (designated day 0). The animal model of PDX tumors was orally treated weekly for 4 times (one cycle/course, as shown with black arrows) or only one time drug administration.

Series [2] has as its system HeLa. In kind it is cell-based, human.
Series [3] concerns HepG2. In kind it is cell-based, human.
Series [4] concerns A549. In kind it is cell-based, human.
Series [5] concerns HCT116. In kind it is cell-based, human.
For series [6], the system named is Wer 127. Nature of the series: MTT assay Wer 127. The note with it: Table 7. In kind it is cell-based. As for the experimental part:
(§1) MTT assays. […] Each experiment was performed at least in triplicate.

Series [7] deals with Y79. Kind of series: MTT assay Y79. Particulars: Table 7. Format: cell-based. As to the method: as §1
On the technique in general: Formazan colour is commonly taken as a measure of viable cells.

The subject of series [8] is HT-3. Nature of the series: MTT assay HT-3. Format: cell-based, human. Particulars: Table 7; HT-3. As to the method: MTT assays. […] Viable cells (2500 cells per well) were plated in each well in 96-well plates. After an overnight incubation, cells were treated with and without relevant drugs alone and in combination, respectively, at various concentrations and incubated for 72 hours. MTT, a colorimetric substrate, was added to a final concentration of 0.4 mg/ml to each well. Cells in 96-well plates were further incubated in a 5% CO2 incubator at 37° C. for 4 hours, and then the medium was aspirated. The MTT metabolic product formazan was solubilized by adding 200 ul of DMSO to each well. Absorbance in the relevant wells was measured at 570 nm using an Ultra Microplate Reader (Bio-Tek Instruments). Each experiment was performed at least in triplicate. IC50/EC50 values were calculated from a series of drug dose ranges for each analyzed compound, using GraphPad Prism 6 (GraphPad Software, Inc., La Jolla, CA).
The inhibition of cell growth and viability in various cancer cell types were tested using MTT assay for references.

Each structure is given as a SMILES string. A value given as a limit tells only on which side of the number the result lay.

With `CC[C@@]1(O)C(=O)OCc2c1cc1n(c2=O)Cc2c-1nc1cc3c(cc1c2-c1ccc(C)c(F)c1)OCO3` [Compound 7Q28], in series [1], the “antitumor activity, 7Q-series (2)” value is on record as “much higher antitumor activity than the other compounds in this 7Q-series (2)” and the “effect of oral instead of i.p. administration on antitumor efficacy” value is given as “decreases 7Q28 antitumor efficacy”.

Take `CC[C@@]1(O)C(=O)OCc2c1cc1n(c2=O)Cc2c-1nc1cc3c(cc1c2-c1ccc(OC)c(F)c1)OCO3` [Compound 7Q31]: in series [1], the “antitumor activity, 7Q-series (2)” value is listed as “much higher antitumor activity than the other compounds in this 7Q-series (2)” and the “effect of oral instead of i.p. administration on antitumor efficacy” value was “decreases 7Q28 antitumor efficacy”.

For the compound `CC[C@@]1(O)C(=O)OCc2c1cc1n(c2=O)Cc2c-1nc1cc3c(cc1c2-c1ccc(F)c(OC)c1)OCO3` [Compound 7Q32], in series [1], the “antitumor activity, 7Q-series (2)” value is recorded as “much higher antitumor activity than the other compounds in this 7Q-series (2)” and the “toxicity on i.p. versus oral administration” value was “increases 7Q32 toxicity to animals in comparison with oral administration”.

For `CC[C@@]1(O)C(=O)OCc2c1cc1n(c2=O)Cc2c-1nc1cc3c(cc1c2-c1cccc(C(F)(F)F)c1)OCO3` [Compound 7Q35], in series [1], the “antitumor activity, 7Q-series (2)” value was “much higher antitumor activity than the other compounds in this 7Q-series (2)” and the “effect of oral instead of i.p. administration on antitumor efficacy” value is “decreases 7Q35 antitumor efficacy”.

Take `CC[C@@]1(O)C(=O)OCc2c1cc1n(c2=O)Cc2c-1nc1cc3c(cc1c2-c1cccc(OC(F)(F)F)c1)OCO3` [Compound 7Q36]: in series [1], the “antitumor activity, 7Q-series (2)” value was “much higher antitumor activity than the other compounds in this 7Q-series (2)” and the “loss of antitumor efficacy on oral administration” value is listed as over 80%.

On to `CC[C@@]1(O)C(=O)OCc2c1cc1n(c2=O)Cc2c-1nc1cc3c(cc1c2-c1cccc(F)c1)OCO3` [Compound 7a], for which the IC50 in series [2] worked out at 34.7 ± 6.5 nM; in series [3], 155 ± 35.1 nM; in series [4], 40 ± 0.3 nM; in series [5], 150 ± 2.5 nM.

For the compound `CC[C@@]1(O)C(=O)OCc2c1cc1n(c2=O)Cc2c-1nc1cc3c(cc1c2-c1cc(F)cc(F)c1)OCO3` [Compound 7c], the antitumor efficacy entry in series [1] was “high antitumor efficacy”. In series [1] (ip), the mouse body weights entry is reported as “stable mouse body weights”. For the same compound, the concentration for half-maximal inhibition (IC50) in series [2] came to 35.6 ± 5.8 nM; in series [3], 41.4 ± 5.9 nM; in series [4], 49.5 ± 10 nM; in series [5], 48 ± 4.4 nM.

On to `CC[C@@]1(O)C(=O)OCc2c1cc1n(c2=O)Cc2c-1nc1cc3c(cc1c2-c1ccc(C)c(F)c1)OCO3` [Compound 7d], for which the IC50 turned out to be 22.1 ± 7.3 nM in series [2], 36.9 ± 1.2 nM in series [3], 48.2 ± 7.9 nM in series [4] and 50.3 ± 14.6 nM in series [5].

With `CC[C@@]1(O)C(=O)OCc2c1cc1n(c2=O)Cc2c-1nc1cc3c(cc1c2-c1ccc(F)c(C)c1)OCO3` [Compound 7e], the half-maximal inhibitory concentration (IC50) was 36.6 ± 4.5 nM in series [2], 36.7 ± 2.6 nM in series [3], 29.4 ± 4.1 nM in series [4] and 25.5 ± 3.2 nM in series [5].

`CC[C@@]1(O)C(=O)OCc2c1cc1n(c2=O)Cc2c-1nc1cc3c(cc1c2-c1cc(C)cc(F)c1)OCO3` [Compound 7f]: the IC50 is 56.5 ± 2.8 nM in series [2], 56 ± 0.3 nM in series [3], 30.6 ± 3.8 nM in series [4] and 41.4 ± 5.9 nM in series [5].

Take `CC[C@@]1(O)C(=O)OCc2c1cc1n(c2=O)Cc2c-1nc1cc3c(cc1c2-c1ccc(OC)c(F)c1)OCO3` [Compound 7g]: the 50% inhibitory concentration (IC50) in series [2] worked out at 24.3 ± 4.4 nM; in series [3], 172 ± 5.3 nM; in series [4] it was 70.2 ± 9.6 nM; in series [5], 43.2 ± 15.8 nM.

For `CC[C@@]1(O)C(=O)OCc2c1cc1n(c2=O)Cc2c-1nc1cc3c(cc1c2-c1cc(F)cc(OC)c1)OCO3` [Compound 7i], the IC50 came to 124 ± 12.1 nM in series [2], 48.5 ± 2.3 nM in series [3], 15.5 ± 2.2 nM in series [4] and 66.9 ± 6.5 nM in series [5].

In the case of `CCOc1ccc(-c2c3c(nc4cc5c(cc24)OCO5)-c2cc4c(c(=O)n2C3)COC(=O)[C@]4(O)CC)cc1F` [Compound 7j], the IC50 in series [2] was 42.2 ± 3.6 nM; in series [3], 206 ± 38.2 nM; in series [4], 352 ± 10.3 nM; in series [5], 399 ± 19.8 nM.

Regarding `CC[C@@]1(O)C(=O)OCc2c1cc1n(c2=O)Cc2c-1nc1cc3c(cc1c2-c1cccc(C(F)(F)F)c1)OCO3` [Compound 7k], the IC50 in series [2] came to 20.2 ± 3 nM; in series [3], 35 ± 6.6 nM; in series [4] it was 82.9 ± 5.6 nM; in series [5], 73.6 ± 7.1 nM.

As to `CC[C@@]1(O)C(=O)OCc2c1cc1n(c2=O)Cc2c-1nc1cc3c(cc1c2-c1ccc(OC(F)(F)F)cc1)OCO3` [Compound 7m], the IC50 in series [2] was 398 ± 2.6 nM; in series [3], 229 ± 5.8 nM; in series [4] it was 87.3 ± 14.4 nM; in series [5], 196 ± 19.1 nM.

As to `CC[C@@]1(O)C(=O)OCc2c1cc1n(c2=O)Cc2c-1nc1cc3c(cc1c2-c1ccc(F)c(F)c1)OCO3` [Compound 7n], the IC50 in series [2] was 39.7 ± 2.3 nM; in series [3], 49.9 ± 3.5 nM; in series [4], 9 nM; in series [5], 48.8 ± 3.2 nM.

In the case of `CC[C@@]1(O)C(=O)OCc2c1cc1n(c2=O)Cc2c-1nc1cc3c(cc1c2-c1cccc(OC(F)(F)F)c1)OCO3` [Compound 71], in series [1], the antitumor efficacy result is given as “no more effective than FL118 in vivo”. Besides, the half-maximal inhibitory concentration (IC50) amounted to 12.8 ± 7.4 nM in series [2], 16.8 ± 2.3 nM in series [3], 26.4 ± 7.5 nM in series [4] and 14.6 ± 6.7 nM in series [5].

Turning to `CC[C@@]1(O)C(=O)OCc2c1cc1n(c2=O)Cc2c-1nc1cc3c(cc1c2C=Cc1ccccc1)OCO3` [FL7-5, 20 (S)-7-cinnamenyl-10,11-methylenedioxy-camptothecin], the IC50/EC50 in series [6] turned out to be 5.13 nM; in series [7], 2.51 nM; in series [8] it was 5.89 nM.

For the compound `CC[C@@]1(O)C(=O)OCc2c1cc1n(c2=O)Cc2c-1nc1cc3c(cc1c2CCc1ccccc1)OCO3` [FL7-14, 20 (S)-7-phenethyl-10,11-methylenedioxy-camptothecin], the figures for the IC50/EC50 in series [6], in series [7] and in series [8] were 4.1 nM, 8.39 nM and 36.9 nM, respectively.

With `CC[C@@]1(O)C(=O)OCc2c1cc1n(c2=O)Cc2c-1nc1cc3c(cc1c2/C=C/C=C/c1ccccc1)OCO3` [FL7s-1], the values for the IC50/EC50 in series [6], in series [7] and in series [8] were over 500 nM, 4.16 nM and 11.9 nM, respectively.

Consider `CCC1(O)C(=O)OCc2c1cc1n(c2=O)Cc2c-1nc1cc3c(cc1c2C=CC=Cc1ccc(OC)cc1)OCO3` (stereo not shown) [FL7s-2], for which the figures for the IC50/EC50 in series [6], in series [7] and in series [8] were over 500 nM, 41.48 nM and 113.2 nM, respectively.

For the compound `CC[C@@]1(O)C(=O)OCc2c1cc1n(c2=O)Cc2c-1nc1cc3c(cc1c2CCc1ccc(F)cc1)OCO3` [FL7s-4], the IC50/EC50 in series [6] is listed as 49.46 nM; in series [7], 0.62 nM; in series [8], 4.7 nM.

Take `CC[C@@]1(O)C(=O)OCc2c1cc1n(c2=O)Cc2c-1nc1cc3c(cc1c2CCCCc1ccccc1)OCO3` [FL7s-5]: the IC50/EC50 in series [6] is 381.2 nM; in series [7], 1.11 nM; in series [8], 3.58 nM.

With `CC[C@@]1(O)C(=O)OCc2c1cc1n(c2=O)Cc2c-1nc1cc3c(cc1c2CCCCc1ccc(OC)cc1)OCO3` [FL7s-6], the IC50/EC50 is listed as 6.48 nM in series [6], 1.52 nM in series [7] and 7.7 nM in series [8].

Take `CC[C@@]1(O)C(=O)OCc2c1cc1n(c2=O)Cc2c-1nc1cc3c(cc1c2CCc1ccccc1F)OCO3` [FL7s-8]: the IC50/EC50 in series [6] was 28.99 nM; in series [7], 1.56 nM; in series [8] it was 4.88 nM.

Take `CC[C@@]1(O)C(=O)OCc2c1cc1n(c2=O)Cc2c-1nc1cc3c(cc1c2CCc1ccc(F)c(F)c1)OCO3` [FL7s-9]: the results for the IC50/EC50 in series [6], in series [7] and in series [8] were 1.86 nM, 1 nM and 3.42 nM, respectively.

With `CC[C@@]1(O)C(=O)OCc2c1cc1n(c2=O)Cc2c-1nc1cc3c(cc1c2CCc1cc(F)c(F)c(F)c1)OCO3` [FL7s-10], the IC50/EC50 in series [6] came out at 12.26 nM; in series [7] it was 1.15 nM; in series [8], 3.44 nM.

As usually defined, the IC50 is the concentration that gives 50% inhibition. A low value points to greater potency.
